Laboratory results from ChEMBL document CHEMBL1201862, “PubChem BioAssay data set” (2004).
Activity calls are given as the source filed them.

Columns and labels:
[1] = cells
[2] = biological target: T1, Short transient receptor potential channel 4 (Mus musculus, UniProt Q9QUQ5); experiment: mouse TRPC4 channel activators, dose response, cell-based, HEK293 TRPC4/mu-opioid, Fluo-4 calcium (AID 434937); format: functional
T1 sequence (Q9QUQ5 whole entry): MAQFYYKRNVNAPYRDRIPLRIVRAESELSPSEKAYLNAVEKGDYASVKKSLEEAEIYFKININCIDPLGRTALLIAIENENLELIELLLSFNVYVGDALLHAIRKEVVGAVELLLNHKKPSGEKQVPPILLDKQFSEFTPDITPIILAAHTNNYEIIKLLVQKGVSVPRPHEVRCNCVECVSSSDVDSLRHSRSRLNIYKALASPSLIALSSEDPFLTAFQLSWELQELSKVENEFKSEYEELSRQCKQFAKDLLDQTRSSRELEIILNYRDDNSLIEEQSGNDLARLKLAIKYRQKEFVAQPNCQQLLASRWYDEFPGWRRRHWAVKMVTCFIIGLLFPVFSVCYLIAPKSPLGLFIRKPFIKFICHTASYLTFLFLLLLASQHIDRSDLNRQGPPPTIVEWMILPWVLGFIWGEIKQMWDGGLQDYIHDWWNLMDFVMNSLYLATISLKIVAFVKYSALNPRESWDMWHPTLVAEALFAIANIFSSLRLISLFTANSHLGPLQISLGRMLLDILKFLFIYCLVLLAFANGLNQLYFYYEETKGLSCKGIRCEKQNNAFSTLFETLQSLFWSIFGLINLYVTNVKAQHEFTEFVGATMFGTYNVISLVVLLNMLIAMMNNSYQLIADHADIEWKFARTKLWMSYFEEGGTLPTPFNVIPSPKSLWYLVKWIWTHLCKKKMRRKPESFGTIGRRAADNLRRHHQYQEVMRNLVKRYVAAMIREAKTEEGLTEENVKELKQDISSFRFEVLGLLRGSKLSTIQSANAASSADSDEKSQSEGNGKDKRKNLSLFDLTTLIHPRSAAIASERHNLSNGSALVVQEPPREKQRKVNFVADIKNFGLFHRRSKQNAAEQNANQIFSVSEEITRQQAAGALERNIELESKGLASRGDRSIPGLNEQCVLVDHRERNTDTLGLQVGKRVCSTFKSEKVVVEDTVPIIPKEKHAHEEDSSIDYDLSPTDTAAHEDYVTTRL

[3] = human group III sPLA2 inhibitors, dose response, biochemical, QFRET, IC50 (AID 743457);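 also: green fluorescence rise as the enzyme cleaves BODIPY PC-A2 in liposomes; potency for inhibition of the enzyme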
[4] = Luminescence Cell-Based Dose Response to Identify Activators of 5'UTR Stem-Loop Driven Prion Protein mRNA Translation in H4-C Neuroglioblastoma Cells. [Related pubchem assays: 1829 (Project Summary), 1814 (Primary HTS)]; format: functional
[5] = Luminescence Cell-Based Dose Response HTS to Identify Activators of Luciferase Translation or Activity in H4 […] Cells. [Related pubchem assays: 1829 (Project Summary), 1814 (Primary HTS)]; format: functional
[6] = tested on: H4; experiment: Luminescence Cell-Based Dose Response HTS to Identify Activators of 5'UTR Stem-Loop Driven Prion Protein mRNA Translation in H4 Neuroglioblastoma Cells. [Related pubchem assays: 1829 (Project Summary), 1814 (Primary HTS)]; format: functional; details: Homo sapiens
[7] = Luminescence Cell-Based Dose Response to Identify Activators of Luciferase Translation or Activity in H4-C Neuroglioblastoma Cells. [Related pubchem assays: 1829 (Project Summary), 1814 (Primary HTS)]; format: functional
[8] = Luminescence Cell-Based Dose Confirmation to Identify Activators of 5'UTR Stem-Loop Driven Alpha-Synuclein mRNA Translation in H4 Neuroglioblastoma Cells. [Related pubchem assays: 1829 (Project Summary), 1814 (Primary HTS)]; format: functional
[9] = biological target: FAD-linked sulfhydryl oxidase ALR (Homo sapiens, UniProt P55789); experiment: inhibitors of human ALR sulfhydryl oxidase, dose response, biochemical, H2O2 detection, luminescence, cherry-pick (AID 493248)
FAD-linked sulfhydryl oxidase ALR, sequence (P55789 whole entry, the tested form may be a part): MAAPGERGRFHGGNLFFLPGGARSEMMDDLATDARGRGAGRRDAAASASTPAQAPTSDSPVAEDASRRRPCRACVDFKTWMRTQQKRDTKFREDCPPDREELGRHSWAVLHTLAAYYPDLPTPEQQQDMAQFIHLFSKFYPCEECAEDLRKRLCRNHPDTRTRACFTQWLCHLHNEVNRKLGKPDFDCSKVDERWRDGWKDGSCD

[10] = biological target: T2, Oxysterols receptor LXR-beta (Homo sapiens, UniProt P55055); format: functional, cell-based;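 also: agonist activity at LXR measured by a cell-based luminescence readout across a dose range, run as a counterscreen for daf-12 agonists; HEK293 cells with Gal4-LXR fusion and GAL4-driven luciferase reporter; potency for activation of Gal4-LXR reporter so compounds are agonists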
T2 sequence (P55055 whole entry): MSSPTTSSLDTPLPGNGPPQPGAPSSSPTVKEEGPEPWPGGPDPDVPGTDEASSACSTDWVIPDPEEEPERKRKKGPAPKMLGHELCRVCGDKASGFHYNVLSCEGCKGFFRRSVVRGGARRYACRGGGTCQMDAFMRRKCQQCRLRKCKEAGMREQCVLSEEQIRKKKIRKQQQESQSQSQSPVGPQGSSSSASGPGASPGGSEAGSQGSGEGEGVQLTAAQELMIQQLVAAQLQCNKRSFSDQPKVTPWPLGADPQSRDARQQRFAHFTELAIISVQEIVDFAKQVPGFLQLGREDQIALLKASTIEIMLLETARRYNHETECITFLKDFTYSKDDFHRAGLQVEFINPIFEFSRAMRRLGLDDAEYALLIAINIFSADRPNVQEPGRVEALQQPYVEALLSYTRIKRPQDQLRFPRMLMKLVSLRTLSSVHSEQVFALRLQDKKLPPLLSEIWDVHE

[11] = NIH-3T3 fibroblast cytotoxicity, dose response, cytotoxicity control, cell-based, fluorescence, Alamar Blue, secondary assay (AID 2327); format: functional;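 also: NIH-3T3 mouse fibroblasts cultured with fluconazole at 8 µg/mL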
[12] = tested on: Streptococcus sp. 'group A'; experiment: growth inhibition of control SK(-) GAS strain, dose response, counter-screen for streptokinase expression inhibitor project, luminescence, kanamycin, BacTiterGlo, confirmation (AID 1900); format: functional, organism-based
[13] = C. albicans growth with fluconazole, confirmation, fluorescence, retest (AID 2467); format: functional, cell-based
[14] = biological target: Estrogen receptor beta (Homo sapiens, UniProt Q92731);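 also: recombinant ER-beta bound to coactivator SRC1 peptide in presence of estradiol agonist; inhibitors block coactivator peptide binding and lower the FRET signal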
Estrogen receptor beta, sequence (Q92731 whole entry): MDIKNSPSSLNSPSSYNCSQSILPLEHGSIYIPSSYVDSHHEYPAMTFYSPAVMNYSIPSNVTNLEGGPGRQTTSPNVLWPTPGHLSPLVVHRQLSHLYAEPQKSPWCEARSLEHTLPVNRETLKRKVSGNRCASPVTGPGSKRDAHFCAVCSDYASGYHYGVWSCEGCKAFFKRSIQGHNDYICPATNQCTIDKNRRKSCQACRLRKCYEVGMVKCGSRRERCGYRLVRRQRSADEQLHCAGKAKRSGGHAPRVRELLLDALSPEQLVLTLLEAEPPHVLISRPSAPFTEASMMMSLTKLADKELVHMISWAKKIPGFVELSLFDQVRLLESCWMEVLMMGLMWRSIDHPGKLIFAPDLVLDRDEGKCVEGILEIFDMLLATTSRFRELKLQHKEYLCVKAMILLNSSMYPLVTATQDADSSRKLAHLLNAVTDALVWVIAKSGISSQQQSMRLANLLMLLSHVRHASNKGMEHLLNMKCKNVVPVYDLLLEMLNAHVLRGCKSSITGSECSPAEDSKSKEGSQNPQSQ

[15] = tested on: Streptococcus; experiment: Group A Streptococcus viability loss, dose response, counter-screen for streptokinase expression inhibitor project, luminescence, BacTiterGlo (AID 1915); format: functional, organism-based;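 also: potency for reduction of bacterial viability or growth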
[16] = ADAM10 inhibitors, peptide cleavage, dose response, biochemical, QFRET (AID 743254);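 also: ADAM10 enzyme with the DM2 quenched FRET peptide as substrate; EDANS fluorescence gain as the protease cuts the substrate; inhibitor potency against ADAM10 proteolytic activity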
[17] = biological target: Disintegrin and metalloproteinase domain-containing protein 17 (Homo sapiens, UniProt P78536); experiment: ADAM17 protease inhibitors, dose response, counter-screen for ADAM10 exosite inhibitor project, biochemical, quenched FRET substrate (AID 743253)
Disintegrin and metalloproteinase domain-containing protein 17, sequence (P78536 whole entry, the tested form may be a part): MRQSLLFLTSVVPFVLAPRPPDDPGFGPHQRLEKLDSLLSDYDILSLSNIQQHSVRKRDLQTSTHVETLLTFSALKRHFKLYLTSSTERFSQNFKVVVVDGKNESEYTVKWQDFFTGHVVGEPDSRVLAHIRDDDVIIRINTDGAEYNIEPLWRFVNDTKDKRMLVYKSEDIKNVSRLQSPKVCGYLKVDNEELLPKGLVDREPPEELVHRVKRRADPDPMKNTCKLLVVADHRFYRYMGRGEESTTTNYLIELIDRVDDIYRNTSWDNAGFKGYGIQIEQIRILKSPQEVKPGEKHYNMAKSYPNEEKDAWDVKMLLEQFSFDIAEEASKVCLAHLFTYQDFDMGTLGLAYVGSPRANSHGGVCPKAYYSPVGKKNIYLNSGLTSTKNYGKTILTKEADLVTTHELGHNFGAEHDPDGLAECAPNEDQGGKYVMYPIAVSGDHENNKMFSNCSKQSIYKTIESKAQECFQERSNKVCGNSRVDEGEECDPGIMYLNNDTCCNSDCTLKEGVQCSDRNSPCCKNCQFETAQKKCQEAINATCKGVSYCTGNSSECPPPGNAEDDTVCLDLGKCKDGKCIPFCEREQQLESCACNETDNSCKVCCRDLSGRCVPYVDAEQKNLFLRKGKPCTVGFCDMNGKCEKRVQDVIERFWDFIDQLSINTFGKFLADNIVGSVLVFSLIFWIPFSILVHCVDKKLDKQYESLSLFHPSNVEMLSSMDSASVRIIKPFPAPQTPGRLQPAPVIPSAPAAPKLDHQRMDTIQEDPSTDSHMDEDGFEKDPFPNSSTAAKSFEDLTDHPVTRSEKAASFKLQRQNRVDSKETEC

[18] = biological target: Potassium channel subfamily K member 9 (Homo sapiens, UniProt Q9NPC2); experiment: TASK3 (KCNK9) channel inhibitors, thallium flux, SAR follow-up, selectivity assay for TASK1 inhibitor project, cell-based, FluxOR thallium flux, concentration-response (AID 652211); format: functional;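 also: potency is for inhibitors of the channel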
Potassium channel subfamily K member 9, sequence (Q9NPC2 whole entry): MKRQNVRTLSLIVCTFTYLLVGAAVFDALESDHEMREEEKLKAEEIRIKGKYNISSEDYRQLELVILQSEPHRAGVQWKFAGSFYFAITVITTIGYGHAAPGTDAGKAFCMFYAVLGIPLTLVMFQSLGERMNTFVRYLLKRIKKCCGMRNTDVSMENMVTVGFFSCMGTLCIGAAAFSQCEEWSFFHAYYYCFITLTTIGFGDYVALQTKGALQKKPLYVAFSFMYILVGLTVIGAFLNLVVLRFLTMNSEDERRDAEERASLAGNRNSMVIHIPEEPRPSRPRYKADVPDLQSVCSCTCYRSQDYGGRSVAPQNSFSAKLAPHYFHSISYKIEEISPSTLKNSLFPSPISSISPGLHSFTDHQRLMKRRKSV

[19] = biological target: Voltage-gated inwardly rectifying potassium channel KCNH2 (Homo sapiens, UniProt Q12809); experiment: hERG channel inhibition in selectivity testing, SAR follow-up, selectivity assay for TASK1 inhibitor project, FluxOR thallium flux, concentration-response, CHO cells (AID 652194); format: functional, cell-based
Voltage-gated inwardly rectifying potassium channel KCNH2, sequence (Q12809 whole entry): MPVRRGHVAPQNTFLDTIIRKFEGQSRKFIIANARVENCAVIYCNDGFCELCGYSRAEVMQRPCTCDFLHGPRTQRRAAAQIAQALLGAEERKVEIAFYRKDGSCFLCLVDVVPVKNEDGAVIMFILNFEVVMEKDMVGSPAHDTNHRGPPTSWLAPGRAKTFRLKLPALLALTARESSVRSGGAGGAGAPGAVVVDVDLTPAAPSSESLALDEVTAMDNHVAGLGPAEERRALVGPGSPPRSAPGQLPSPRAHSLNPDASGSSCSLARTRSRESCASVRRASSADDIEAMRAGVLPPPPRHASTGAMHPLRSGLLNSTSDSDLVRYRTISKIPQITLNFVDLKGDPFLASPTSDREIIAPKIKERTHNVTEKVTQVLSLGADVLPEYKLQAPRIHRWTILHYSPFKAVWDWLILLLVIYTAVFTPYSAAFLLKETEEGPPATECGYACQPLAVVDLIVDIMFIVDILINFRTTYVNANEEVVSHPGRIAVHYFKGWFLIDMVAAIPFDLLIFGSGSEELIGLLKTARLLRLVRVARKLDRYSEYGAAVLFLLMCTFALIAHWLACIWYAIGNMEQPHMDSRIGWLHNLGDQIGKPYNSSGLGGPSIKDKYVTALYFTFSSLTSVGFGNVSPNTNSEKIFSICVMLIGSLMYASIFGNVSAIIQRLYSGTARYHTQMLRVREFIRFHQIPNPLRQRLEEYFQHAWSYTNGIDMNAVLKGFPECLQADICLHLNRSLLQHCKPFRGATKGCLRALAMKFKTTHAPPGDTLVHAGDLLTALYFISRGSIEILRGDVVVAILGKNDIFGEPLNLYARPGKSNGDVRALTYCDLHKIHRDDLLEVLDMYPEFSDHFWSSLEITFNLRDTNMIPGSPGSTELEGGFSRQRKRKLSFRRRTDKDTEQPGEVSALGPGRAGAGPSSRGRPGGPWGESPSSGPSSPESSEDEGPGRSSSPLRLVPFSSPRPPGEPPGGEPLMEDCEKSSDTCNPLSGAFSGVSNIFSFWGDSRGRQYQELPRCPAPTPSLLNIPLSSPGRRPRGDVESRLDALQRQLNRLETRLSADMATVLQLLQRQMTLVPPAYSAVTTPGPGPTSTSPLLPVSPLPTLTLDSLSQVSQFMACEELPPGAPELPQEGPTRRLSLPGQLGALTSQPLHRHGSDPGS

[20] = biological target: Potassium channel subfamily K member 3 (Homo sapiens, UniProt O14649); experiment: TASK1 (KCNK3) potassium channel inhibitors, SAR follow-up, CHO cells, FluxOR thallium flux (AID 652212); format: functional
Potassium channel subfamily K member 3, sequence (O14649 whole entry): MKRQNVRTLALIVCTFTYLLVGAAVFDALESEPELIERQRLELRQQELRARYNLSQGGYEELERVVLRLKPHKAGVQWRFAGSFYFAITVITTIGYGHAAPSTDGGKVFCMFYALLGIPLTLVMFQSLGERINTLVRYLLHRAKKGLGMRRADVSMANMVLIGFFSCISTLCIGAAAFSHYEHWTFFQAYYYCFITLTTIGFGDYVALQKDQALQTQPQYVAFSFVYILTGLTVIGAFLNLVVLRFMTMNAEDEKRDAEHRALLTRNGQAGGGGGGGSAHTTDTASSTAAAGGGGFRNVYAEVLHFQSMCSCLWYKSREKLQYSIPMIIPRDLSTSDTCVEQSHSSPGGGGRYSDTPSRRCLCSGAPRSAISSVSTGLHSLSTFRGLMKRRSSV

[21] = tested on: Cryptococcus neoformans; experiment: PubChem AID 686997; format: functional, organism-based
[22] = tested on: HeLa; experiment: HeLa cell cytotoxicity, dose response, cytotoxicity control, ATP luminescence, cherry-pick samples (AID 687004); format: functional, cell-based; details: Homo sapiens
[23] = tested on: HEK293; experiment: HEK293T cell cytotoxicity, dose response, cytotoxicity control, ATP luminescence, cherry-pick samples (AID 687005); format: functional, cell-based; details: Homo sapiens;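 also: cells exposed to compound for 48 hours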
[24] = HEK293 Cytotoxicity Assay Measured in Cell-Based System Using Plate Reader - 7071-01_Inhibitor_Dose_CherryPick_Activity_Set2.; format: functional
[25] = biological target: Paired box protein Pax-8 (Homo sapiens, UniProt Q06710); experiment: inhibitors of PAX8-driven TPO luciferase reporter, dose response, RMG-I cells, cherry-pick (AID 687027); format: functional, cell-based;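 also: luciferase reporter driven by Pax8 target thyroperoxidase promoter measured by SteadyGlo luminescence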
Paired box protein Pax-8, sequence (Q06710 whole entry): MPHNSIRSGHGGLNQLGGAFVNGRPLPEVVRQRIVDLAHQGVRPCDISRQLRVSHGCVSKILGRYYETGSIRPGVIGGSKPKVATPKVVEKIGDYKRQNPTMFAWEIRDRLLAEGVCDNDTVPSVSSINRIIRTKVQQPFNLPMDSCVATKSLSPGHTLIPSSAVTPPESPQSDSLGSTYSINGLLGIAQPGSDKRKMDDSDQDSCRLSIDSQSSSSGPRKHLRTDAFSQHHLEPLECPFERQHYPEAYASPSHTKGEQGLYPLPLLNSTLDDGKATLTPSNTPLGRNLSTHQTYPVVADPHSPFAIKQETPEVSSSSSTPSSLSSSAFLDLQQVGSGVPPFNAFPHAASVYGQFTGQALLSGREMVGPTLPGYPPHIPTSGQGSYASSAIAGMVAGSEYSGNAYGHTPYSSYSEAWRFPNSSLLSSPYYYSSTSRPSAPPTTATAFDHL

[26] = NIH:OVCAR-3 ovarian cancer cell cytotoxicity, dose response, PAX8 inhibitor project, plate reader, dry powder samples (AID 743044); format: functional, cell-based
[27] = A549 cell cytotoxicity, dose response, cytotoxicity control, plate reader, cherry-pick, antagonist series (AID 743412); format: functional, cell-based
[28] = HepG2 cell cytotoxicity, dose response, cytotoxicity control, plate reader, cherry-pick, antagonist series (AID 743416); format: functional, cell-based
[29] = IGROV1 ovarian cancer cell cytotoxicity, dose response, PAX8 inhibitor project, plate reader, dry powder samples (AID 743043); format: functional, cell-based; details: IGROV-1
[30] = LGR2 antagonists, dose response, cell-based, HEK293, CRE-luciferase reporter, cherry pick, set 2 (AID 743343); format: functional;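 also: transfected cells were stimulated with diluted bursicon conditioned medium after compound addition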
[31] = MC4R antagonists, dose response, counter-screen for LGR2 antagonist project, cell-based, plate reader, cherry pick (AID 743444); format: functional;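 also: transfected HEK 293 cells stimulated with alpha-MSH peptide; potency of inhibitors of the alpha-MSH evoked signal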
[32] = cytotoxicity in OVCAR8 ovarian cancer cells, dose response, PAX8 project, cell-based, plate reader, dry powder samples (AID 743197); format: functional; details: OVCAR-8
[33] = HEK293 cell cytotoxicity, dose response, cytotoxicity control, plate reader, cherry-picked samples (AID 743446); format: functional, cell-based
[34] = biological target: T3, High affinity choline transporter 1 (Homo sapiens, UniProt Q9GZV3); experiment: CHT choline uptake inhibitors, dose response, cell-based, HEK-293 hCHT, [3H]-choline uptake (AID 652177); format: functional
T3 sequence (Q9GZV3 whole entry): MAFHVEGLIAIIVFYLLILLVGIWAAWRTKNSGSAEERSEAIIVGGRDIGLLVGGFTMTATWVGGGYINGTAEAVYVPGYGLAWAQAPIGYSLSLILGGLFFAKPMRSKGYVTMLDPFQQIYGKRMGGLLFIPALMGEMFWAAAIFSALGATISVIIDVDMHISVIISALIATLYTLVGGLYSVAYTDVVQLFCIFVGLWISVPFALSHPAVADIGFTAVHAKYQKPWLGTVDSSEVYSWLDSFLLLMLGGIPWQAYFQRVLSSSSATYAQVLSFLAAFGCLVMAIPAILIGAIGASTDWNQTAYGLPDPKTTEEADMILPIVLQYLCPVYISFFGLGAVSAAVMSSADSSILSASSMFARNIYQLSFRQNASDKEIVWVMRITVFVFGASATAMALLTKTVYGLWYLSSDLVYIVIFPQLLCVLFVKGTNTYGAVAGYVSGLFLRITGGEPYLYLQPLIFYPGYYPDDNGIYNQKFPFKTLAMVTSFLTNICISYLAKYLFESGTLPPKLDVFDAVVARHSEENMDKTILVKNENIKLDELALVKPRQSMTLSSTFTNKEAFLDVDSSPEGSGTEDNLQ

[35] = cytotoxicity in HepG2 cells, dose response, cytotoxicity control, cell-based, cherry-picked samples (AID 1053183); format: functional
[36] = cytotoxicity in HEK293 cells, dose response, cytotoxicity control, cell-based, cherry-picked samples (AID 1053185); format: functional
[37] = cytotoxicity in A549 cells, dose response, cytotoxicity control, cell-based, cherry-picked samples (AID 1053184); format: functional
[38] = HeLa cell cytotoxicity, dose response, cytotoxicity control, 24 h, plate reader, dry powder (AID 686928); format: functional, cell-based
[39] = HEK293 cell cytotoxicity, dose response, cytotoxicity control, HEK293T, ATP luminescence, dry powder (AID 652119); format: functional, cell-based
[40] = biological target: Protein disulfide-isomerase (Homo sapiens, UniProt P07237); experiment: PDI inhibitors, insulin turbidity readout, confirmation, biochemical, dry powder samples, set 2 (AID 652146)
Protein disulfide-isomerase, sequence (P07237 whole entry): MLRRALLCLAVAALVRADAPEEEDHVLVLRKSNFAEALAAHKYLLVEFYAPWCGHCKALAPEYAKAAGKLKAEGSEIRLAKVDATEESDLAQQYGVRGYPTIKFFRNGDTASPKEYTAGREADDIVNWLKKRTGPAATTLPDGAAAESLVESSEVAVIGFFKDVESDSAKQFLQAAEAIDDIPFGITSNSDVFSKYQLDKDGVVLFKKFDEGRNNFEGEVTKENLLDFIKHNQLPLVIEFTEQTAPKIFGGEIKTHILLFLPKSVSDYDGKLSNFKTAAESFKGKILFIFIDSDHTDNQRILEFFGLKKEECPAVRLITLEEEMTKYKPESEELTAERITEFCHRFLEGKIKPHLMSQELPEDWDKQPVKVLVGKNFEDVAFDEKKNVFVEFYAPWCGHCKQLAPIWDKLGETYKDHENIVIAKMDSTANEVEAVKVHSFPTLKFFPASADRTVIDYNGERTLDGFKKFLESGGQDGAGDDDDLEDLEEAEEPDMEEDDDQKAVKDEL

[41] = A Cell-Based Confirmatory Screen for Compounds that Inhibit VEEV, TC-83 (8).; format: functional

COc1ccc(C2C3=C(CC(C)(C)CC3=O)N(C)C3=C2C(=O)CC(C)(C)C3)cc1
AC50 [1]: 2.07 µM (active)

Cc1ccc(C(=O)NC(=S)NNC(=O)c2ccccc2)cc1
EC50 [2]: 1.33 µM (active)
IC50 [3]: 51.6 µM (inactive)

Cc1nc(N)sc1N=Nc1ccc(Br)cc1
EC50 [4]: 0.285 µM (active)
EC50 [5]: < 0.1 µM (active)
EC50 [6]: > 120 µM (not active)
EC50 [7]: 0.303 µM (active)
EC50 [8]: 0.28 µM (active)
AC50 [9]: 0.753 µM (active)
EC50 [10]: > 67.5 µM (inactive)

Cc1cc(NC(=O)c2c(F)cccc2Cl)n(-c2nc3ccccc3[nH]2)n1
EC50 [11]: > 160 µM (inconclusive)
EC50 [12]: 6.4 µM (active)
EC50 [13]: > 38 µM (not active)
IC50 [14]: > 50 µM (not active)
EC50 [15]: 7.12 µM (active)
IC50 [16]: > 7.72 µM (active)
IC50 [17]: > 69.5 µM (inactive)

CCCC(=O)C1CCN(c2ncnc3c2CN(C(=O)c2ccc(-c4ccccc4)cc2)CC3)CC1
IC50 [18]: 0.14 µM (active)
IC50 [19]: 7.68 µM (active)
IC50 [20]: 0.021 µM (active)

COC(=O)C1=C(C)N(Cc2ccc(Br)cc2)C(=S)NC1c1ccc(OC)cc1 (configuration not stated)
AC50 [21]: > 60 µM (inactive)
AC50 ([21]; Cryptococcus neoformans): 36.4 µM (active)
AC50 [22]: > 47 µM (inactive)
AC50 [23]: 22.2 µM (active)
AC50 [24]: 22.2 µM (active)

COc1cccc(-c2ccc3c(c2)[C@H]2[C@H](CCN2C(=O)c2ccccc2F)[C@H](CO)N3C)c1
AC50 [25]: 8.72 µM (active)
AC50 [26]: 22.7 µM (active)
AC50 [27]: 13.8 µM (active)
AC50 [28]: 24 µM (active)
AC50 [29]: 57.8 µM (active)
AC50 [30]: 5.53 µM (active)
AC50 [31]: 7.07 µM (active)
AC50 [32]: 25.3 µM (active)
AC50 [33]: 20.5 µM (active)

CCc1cc(CNC(=O)c2ccc(OC)c(OCCN3CCCCC3)c2)on1
IC50 [34]: 5.91 µM (active)

Fc1cccc(CN2C[C@@H]3N[C@H](C2)[C@H]3c2ccc(/C=C/c3ccccc3)cc2)c1
AC50 [35]: 18.8 µM (active)
AC50 [36]: 13.2 µM (active)
AC50 [37]: 13.7 µM (active)

O=C(Nc1nnc(-c2ccc3c(c2)OCCO3)o1)C1CCCCCC1
AC50 [38]: > 200 µM (inactive)

CCN(C)C(=O)C1(CCOc2ccccc2)CCN(Cc2ccc(O)c(Cl)c2)CC1
AC50 [39]: > 52 µM (inactive)
AC50 [40]: 3 µM (active)

O=c1nc(Nc2cccc(OCc3ccccc3)c2)sc2ncccc12
IC50 [41]: 1.64 µM (active)
